23 molecules from ChEMBL document CHEMBL4387706, “Discovery of Novel Spiroindoline Derivatives as Selective Tankyrase Inhibitors” (J Med Chem, 2019) can be followed below.

Molecules are shown by their SMILES. ≈ marks a conversion by molar mass, not a printed value.

The subject of one data set is COLO 320DM. Kind of data set: cells. The settings on record: Homo sapiens, 96 h.
The nature of the next data set: physchem. The following applies: phosphate buffer, pH 7.4.
For the next data set, the target named is T1, Tankyrase 1/2 (Homo sapiens, UniProt Q9H2K2+O95271).
T1 sequence (Q9H2K2 whole entry): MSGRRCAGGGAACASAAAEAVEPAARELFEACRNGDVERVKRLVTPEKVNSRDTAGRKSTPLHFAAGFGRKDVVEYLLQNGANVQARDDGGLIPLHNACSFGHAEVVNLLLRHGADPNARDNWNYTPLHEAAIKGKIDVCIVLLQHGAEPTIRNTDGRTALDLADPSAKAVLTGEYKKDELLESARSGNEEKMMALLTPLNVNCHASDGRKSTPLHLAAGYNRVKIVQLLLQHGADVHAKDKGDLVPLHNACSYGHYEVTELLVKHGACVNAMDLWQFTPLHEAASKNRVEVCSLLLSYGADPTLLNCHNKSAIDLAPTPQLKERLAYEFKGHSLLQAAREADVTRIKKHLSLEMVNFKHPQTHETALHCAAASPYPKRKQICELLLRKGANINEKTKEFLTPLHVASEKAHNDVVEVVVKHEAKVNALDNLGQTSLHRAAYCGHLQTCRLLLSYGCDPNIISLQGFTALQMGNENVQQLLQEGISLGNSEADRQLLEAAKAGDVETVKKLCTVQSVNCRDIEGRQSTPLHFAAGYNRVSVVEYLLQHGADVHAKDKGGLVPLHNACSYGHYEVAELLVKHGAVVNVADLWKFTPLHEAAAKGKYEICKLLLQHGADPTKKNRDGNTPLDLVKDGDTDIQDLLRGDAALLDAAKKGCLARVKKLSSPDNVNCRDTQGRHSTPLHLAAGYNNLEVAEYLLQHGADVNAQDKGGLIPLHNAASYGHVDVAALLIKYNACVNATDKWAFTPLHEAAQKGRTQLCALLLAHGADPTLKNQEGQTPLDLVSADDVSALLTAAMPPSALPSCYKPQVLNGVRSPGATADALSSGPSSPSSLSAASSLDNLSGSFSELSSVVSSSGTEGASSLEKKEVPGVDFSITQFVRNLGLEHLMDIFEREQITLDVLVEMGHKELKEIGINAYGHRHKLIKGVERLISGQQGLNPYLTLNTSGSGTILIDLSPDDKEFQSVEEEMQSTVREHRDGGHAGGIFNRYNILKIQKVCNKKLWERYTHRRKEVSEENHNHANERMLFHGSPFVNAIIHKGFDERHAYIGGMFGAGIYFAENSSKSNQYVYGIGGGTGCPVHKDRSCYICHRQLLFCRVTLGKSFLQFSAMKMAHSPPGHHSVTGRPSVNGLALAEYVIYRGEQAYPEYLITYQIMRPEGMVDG
T1 sequence (O95271 whole entry): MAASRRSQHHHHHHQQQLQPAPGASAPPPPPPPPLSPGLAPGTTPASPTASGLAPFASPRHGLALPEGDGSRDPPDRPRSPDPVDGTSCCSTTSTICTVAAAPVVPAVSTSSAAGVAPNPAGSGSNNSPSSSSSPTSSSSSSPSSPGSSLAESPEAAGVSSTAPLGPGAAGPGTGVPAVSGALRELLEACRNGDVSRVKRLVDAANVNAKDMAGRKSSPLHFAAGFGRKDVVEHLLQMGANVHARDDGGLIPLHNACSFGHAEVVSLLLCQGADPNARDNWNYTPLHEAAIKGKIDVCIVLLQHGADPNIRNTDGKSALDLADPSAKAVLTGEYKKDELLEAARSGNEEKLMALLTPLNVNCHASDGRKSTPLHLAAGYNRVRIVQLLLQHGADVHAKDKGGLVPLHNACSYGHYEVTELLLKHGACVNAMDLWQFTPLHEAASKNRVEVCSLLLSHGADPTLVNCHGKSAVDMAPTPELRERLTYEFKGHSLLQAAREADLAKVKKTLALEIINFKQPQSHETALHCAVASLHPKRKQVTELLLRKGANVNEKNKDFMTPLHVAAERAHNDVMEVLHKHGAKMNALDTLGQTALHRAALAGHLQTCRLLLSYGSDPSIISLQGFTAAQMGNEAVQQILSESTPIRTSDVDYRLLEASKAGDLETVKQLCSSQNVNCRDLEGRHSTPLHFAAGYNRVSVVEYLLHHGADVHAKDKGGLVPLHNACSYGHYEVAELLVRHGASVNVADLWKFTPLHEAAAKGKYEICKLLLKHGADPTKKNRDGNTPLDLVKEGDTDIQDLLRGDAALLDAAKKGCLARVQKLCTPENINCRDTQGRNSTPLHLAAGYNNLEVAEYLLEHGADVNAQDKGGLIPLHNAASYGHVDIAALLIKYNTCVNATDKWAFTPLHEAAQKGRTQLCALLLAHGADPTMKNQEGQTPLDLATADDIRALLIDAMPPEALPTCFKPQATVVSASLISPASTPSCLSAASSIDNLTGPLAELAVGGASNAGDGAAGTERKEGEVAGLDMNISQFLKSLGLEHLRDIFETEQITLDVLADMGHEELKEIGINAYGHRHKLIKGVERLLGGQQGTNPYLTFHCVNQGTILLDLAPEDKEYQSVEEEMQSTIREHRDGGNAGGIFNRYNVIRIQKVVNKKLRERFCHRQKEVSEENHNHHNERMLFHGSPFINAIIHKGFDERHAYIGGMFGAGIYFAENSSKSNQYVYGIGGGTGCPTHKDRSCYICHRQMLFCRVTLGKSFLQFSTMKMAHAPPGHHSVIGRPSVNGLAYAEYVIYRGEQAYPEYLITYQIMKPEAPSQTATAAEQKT

Data set [1] concerns the target T2, Poly [ADP-ribose] polymerase tankyrase-1 (Homo sapiens, UniProt O95271).
T2 sequence (O95271 whole entry): T1 sequence (O95271 whole entry)
Description: Inhibition of recombinant human N-terminal TEV cleavage site-fused/FLAG-poly his-tagged TNKS SAM-PARP domain (1024 to 1327 residues) expressed in Escherichia coli assessed as reduction in auto-PARylation preincubated for 10 mins followed by biotinylated-NAD+ addition and measured after 45 mins by ELISA

Data set [2] addresses T3, Poly [ADP-ribose] polymerase tankyrase-2 (Homo sapiens, UniProt Q9H2K2).
T3 sequence (Q9H2K2 whole entry): T1 sequence (Q9H2K2 whole entry)
Description: Inhibition of recombinant human N-terminal TEV cleavage site-fused/FLAG-poly his-tagged TNKS2 SAM-PARP domain (613 to 1166 residues) expressed in Escherichia coli assessed as reduction in auto-PARylation preincubated for 10 mins followed by biotinylated-NAD+ addition and measured after 45 mins by ELISA

Description for COLO 320DM: Antiproliferative activity against human COLO320DM cells assessed as inhibition of cell growth measured after 4 days by CellTiter-Glo assay
Description for Tankyrase 1/2: Inhibition of TNKS/TNKS2 (unknown origin) expressed in human DLD1 cells assessed as reduction in Wnt-signaling measured after 24 hrs by TCF-luciferase reporter gene assay

In the data set on COLO 320DM, `O=c1[nH]c(N2CCC3(CC2)CNc2cc(Cl)ccc23)nc2c1CCCC2` showed a GI50 of 6900 nM. Further, in “physchem”, the solubility at 1 h, 200 µM turned out to be 9.2 µg/mL (≈ 24.8 µM). The values for the IC50 (on Tankyrase 1/2; in data set [1]; in data set [2]) were 818 nM, 8.4 nM and 5.8 nM, respectively.
Regarding `O=C1Nc2cc(Cl)ccc2C12CCN(c1nc3c(c(=O)[nH]1)CCCC3)CC2`, in the data set with COLO 320DM, halving of growth (GI50) required 19900 nM. The molecule further yielded a solubility at 1 h, 200 µM in “physchem” of 1.8 µg/mL (≈ 4.68 µM). In addition, the IC50 against Tankyrase 1/2 came out at 623 nM; in data set [1] it was 11.1 nM; in data set [2], 14.4 nM.
With `COc1ccccc1N1CCC(c2nc3c(c(=O)[nH]2)CCCC3)CC1`, the GI50 in the data set on COLO 320DM was 19600 nM. The IC50 against Tankyrase 1/2 turned out to be 5401 nM; in data set [1], 14300 nM; in data set [2], 6420 nM.
Consider `O=c1[nH]c(N2CCC3(CC2)CNc2cc(F)ccc23)nc2c1CCCC2`, for which the concentration for 50% growth inhibition (GI50) in the data set on COLO 320DM turned out to be 10300 nM. The solubility at 1 h, 200 µM in the data set “physchem” was determined as 3.2 µg/mL (≈ 9.03 µM). The IC50 at Tankyrase 1/2 was 657 nM; in data set [1], 16.7 nM; in data set [2], 7.6 nM.
In the same order, the values of `O=c1[nH]c(N2CCC3(CC2)CNc2cccc(Cl)c23)nc2c1CCCC2` are 4900 nM, 2.6 µg/mL (≈ 7.01 µM), 247 nM, 6.4 nM and 5.3 nM.
As to `COc1ccccc1N1CCN(c2nc3c(c(=O)[nH]2)CN(C)CC3)CC1`, the solubility at 1 h, 200 µM in “physchem” is 69.7 µg/mL (≈ 196 µM). In addition, the IC50 on Tankyrase 1/2 was greater than 10000 nM; in data set [1] it was greater than 20000 nM; in data set [2] it was greater than 20000 nM.
With `O=C1Nc2cc(F)ccc2C12CCN(c1nc3c(c(=O)[nH]1)CCCC3)CC2`, the GI50 in the data set on COLO 320DM was determined as 15000 nM. This molecule also displayed a solubility at 1 h, 200 µM in the data set “physchem” of 62.9 µg/mL (≈ 171 µM). In addition, the IC50 on Tankyrase 1/2 came to 369 nM; in data set [1] it was 11 nM; in data set [2], 12 nM.
For `O=C1Nc2cccc(F)c2C12CCN(c1nc3c(c(=O)[nH]1)CCCC3)CC2`, in that order: 2300 nM, 3.1 µg/mL (≈ 8.41 µM), 31.1 nM, 5.8 nM and 4.7 nM.
For `O=c1[nH]c(N2CCC3(CC2)CNc2cc(Cl)cc(Cl)c23)nc2c1CCCC2`, in that order: 7500 nM, 11 µg/mL (≈ 27.1 µM), 609 nM, 7.5 nM and 10.4 nM.
For `O=C1Nc2cc(F)cc(F)c2C12CCN(c1nc3c(c(=O)[nH]1)CCCC3)CC2`, in that order: 4200 nM, 0.8 µg/mL (≈ 2.07 µM), 43.9 nM, 6.4 nM and 7.5 nM.
With `O=c1[nH]c(N2CCC3(CC2)CNc2cccc(F)c23)nc2c1CCCC2`, growth in the data set on COLO 320DM was halved (GI50) at 3300 nM. In “physchem”, this molecule had a solubility at 1 h, 200 µM of 4.2 µg/mL (≈ 11.9 µM). Moreover, the IC50 against Tankyrase 1/2 came out at 72.4 nM; in data set [1] it was 4.4 nM; in data set [2], 2.8 nM.
In the same order, the values of `O=C1Nc2cccc(Cl)c2C12CCN(c1nc3c(c(=O)[nH]1)CCCC3)CC2` are 5000 nM, 2.8 µg/mL (≈ 7.28 µM), 21.5 nM, 10.2 nM and 4.9 nM.
In the same order, the values of `N#Cc1cccc2c1C1(CCN(c3nc4c(c(=O)[nH]3)CCCC4)CC1)CN2` are 23600 nM, 69.2 µg/mL (≈ 191 µM), 799 nM, 9.9 nM and 18.5 nM.
For the molecule `COc1ccccc1N1CCN(c2nc3c(c(=O)[nH]2)CC(C)(C)CC3)CC1`, in the data set “physchem”, the solubility at 1 h, 200 µM came out at 2.4 µg/mL (≈ 6.51 µM). In addition, the IC50 on Tankyrase 1/2 is greater than 10000 nM; in data set [1], greater than 20000 nM; in data set [2] it was greater than 20000 nM.
In turn, `O=C1Nc2cc(Cl)cc(Cl)c2C12CCN(c1nc3c(c(=O)[nH]1)CCCC3)CC2` came in with a GI50 in the data set with COLO 320DM of 21400 nM. Further, in the data set “physchem”, the solubility at 1 h, 200 µM was found to be 15.7 µg/mL (≈ 37.4 µM). Also, the IC50 stood at 533 nM on Tankyrase 1/2, 5.3 nM in data set [1] and 7.1 nM in data set [2].
Regarding `O=c1[nH]c(N2CCC3(CC2)CNc2cccc(Br)c23)nc2c1CCCC2`, in the data set with COLO 320DM, the GI50 was found to be 10400 nM. In “physchem”, the solubility at 1 h, 200 µM is 8.9 µg/mL (≈ 21.4 µM). Further, the IC50 at Tankyrase 1/2 stood at 454 nM; in data set [1] it was 16 nM; in data set [2], 15.6 nM.
For `O=C1Nc2cccc(Br)c2C12CCN(c1nc3c(c(=O)[nH]1)CCCC3)CC2`, in that order: 8800 nM, 1.9 µg/mL (≈ 4.43 µM), 91.2 nM, 5.8 nM and 13.4 nM.
The molecule `COc1ccccc1N1CCN(c2nc3c(c(=O)[nH]2)CNCC3)CC1` displayed a solubility at 1 h, 200 µM in “physchem” of 66.4 µg/mL (≈ 194 µM). Also, the IC50 against Tankyrase 1/2 was greater than 10000 nM; in data set [1], 7780 nM; in data set [2], 6980 nM.
For `COc1ccccc1N1CCN(c2nc3c(c(=O)[nH]2)CC(C)CC3)CC1` (stereo not given), in that order: 1.8 µg/mL (≈ 5.08 µM), 7282 nM, 1350 nM and 3480 nM.
On to `O=c1[nH]c(N2CCC3(CC2)CNc2cc(F)cc(F)c23)nc2c1CCCC2`, for which, in the data set on COLO 320DM, growth was halved (GI50) at 5200 nM. The molecule also showed a solubility at 1 h, 200 µM in the data set “physchem” of 6.3 µg/mL (≈ 16.9 µM). Besides, the half-maximal inhibitory concentration (IC50) against Tankyrase 1/2 turned out to be 110 nM; in data set [1], 5.4 nM; in data set [2], 3.3 nM.
`Oc1nc(N2CCN(c3ccccc3)CC2)nc2c1CCCC2` showed a solubility at 1 h, 200 µM in “physchem” of 4.9 µg/mL (≈ 15.8 µM). Moreover, the IC50 on Tankyrase 1/2 was 1536 nM; in data set [1], 135 nM; in data set [2], 58.9 nM.
Take `N#Cc1cccc2c1C1(CCN(c3nc4c(c(=O)[nH]3)CCCC4)CC1)C(=O)N2`: growth with COLO 320DM was halved (GI50) at 20400 nM. The solubility at 1 h, 200 µM in the data set “physchem” amounted to 5.3 µg/mL (≈ 14.1 µM). Further, the IC50 against Tankyrase 1/2 was found to be 496 nM; in data set [1], 16.8 nM; in data set [2], 26.8 nM.
For `COc1ccccc1N1CCN(C2=NC3CCCCCC3C(=O)N2)CC1` (stereo not given), the IC50 against Tankyrase 1/2 is given as greater than 10000 nM.
